Experimental data as given in patent US5859033A, “Anticonvulsant pyridinyl benzamide derivatives” (Bristol-Myers Squibb Company, priority 1997, dated 1999).

Assays:
[1] = system: pentylenetetrazole (PTZ)-induced seizure in female C57BI/6 mice; experiment: Pentylenetetrazole (PTZ)-induced seizure procedure; assay type: in vivo, mouse (female C57BI/6); conditions: 50 mg/kg i.p., 30 min before 75 mg/kg i.p. PTZ; for PTZ Anticonvulsive Results: Surv (survival at one hour postPTZ): one hour post PTZ
Method: (§1) The compounds of Formula I are anticonvulsant agents. Their anticonvulsant properties were determined by pharmacologic testing, utilizing two standard animal models of epilepsy: the pentylenetetrazole (PTZ)-induced seizure procedure and the maximal electroshock test (MES). General descriptions of such testing can be found in J. F. Reinhard and J. F. Reinhard, Jr., "Experimental Evaluation of Anticonvulsants," in Anticonvulsants, J. A. Vida, Ed., Academic Press, New York, N.Y., 1977.
The Pentylenetetrazole (PZT)-Induced Seizure Procedure
In the PTZ procedure female C57BI/6 mice (17-26 g) were injected i.p. (vol=0.1 mL/20 g) with test compound or vehicle 30 min. before i.p. administration of 75 mg/kg pentylenetetrazol. Multiple doses of reference compounds (ethosuximide, trimethadione, and pentobarbital) were tested at the time of peak activity and at the dose range reported in the literature. Ten mice were used per group. After injection, mice were placed in individual observation cages and monitored for one hour. During the first 30 minutes following PTZ injection, seizure activity was recorded by measuring: the latency to the onset of pre-convulsive activity, the latency to the onset of the first clonic seizure longer than five seconds, the latency to the onset of the first intense-generalized clonic/tonic seizure, and the length of survival. During the second 30 min. period, only time of death was recorded. Those compounds that produced a significant delay in the onset of seizure activity or delayed (or abolished) mortality when compared to that produced by vehicle were classified as anticonvulsants. Significant difference between animals treated with vehicle or test compound were determined using the Student's t-test.

[2] = system: tonic seizure (maximum electroshock) in female C57BI/6 mice; experiment: Maximum Electroshock (MES) procedure; assay type: in vivo, mouse (female C57BI/6); conditions: Mus musculus, ip, 0.5 h, i.p. 30 min before MES, abolition of hindlimb tonic extension, read-out: MES Results: median effective dose (ED50)
Method: as §1
The Maximum Electroshock (MES) Procedure
In the MES procedure a tonic seizure was produced in female C57BI/6 mice (17-26 g) by the delivery of a 50 milliamps current through corneal electrodes for 0.2 sec. Before testing, animals were allowed food and water ad libitum. Compounds were injected i.p. (vol=0.1 mL/20 g) 30 min. before the MES. Reference compounds (phenytoin, carbamazepine, phenobarbital, and valproic acid) were tested at the time of peak activity and at the dose range reported in the literature. Seven mice were used per group. In this test anticonvulsive activity was indicated by the abolition of the hindlimb tonic extension. The median effective dose (ED50) was obtained for each compound.

Structure (SMILES)	PTZ Anticonvulsive Results: First (latency to first seizure) [1]	PTZ Anticonvulsive Results: IGS (onset of intense, generalized seizures) [1]	PTZ Anticonvulsive Results: Pre (latency to first twitch) [1]	PTZ Anticonvulsive Results: Surv Time (duration of survival) [1]	PTZ Anticonvulsive Results: Surv (survival at one hour postPTZ) [1]	ED50 [2] [mg/kg]
COc1cc(N)c(Cl)cc1C(=O)NCc1cccnc1 [Example 1, 4-Amino-5-chloro-2-methoxy-N-(3-pyridinylmethyl)benzamide]	++++ (++++ = > 400% of controls)	+++ (+++ = > 300% of controls)	++ (++ = > 200% of controls)	++++ (++++ = > 400% of controls)	++++ (++++ = > 400% of controls)	< 75
COc1cc(N)c(Cl)cc1C(=O)NCc1ccccn1 [Example 2, 4-Amino-5-chloro-2-methoxy-N-(2-pyridinylmethyl)benzamide]	++++ (++++ = > 400% of controls)		++ (++ = > 200% of controls)	+++ (+++ = > 300% of controls)	++++ (++++ = > 400% of controls)	
COc1cc(N)c(Cl)cc1C(=O)NCc1ccncc1 [Example 3, 4-Amino-5-chloro-2-methoxy-N-(4-pyridinylmethyl)benzamide]	++++ (++++ = > 400% of controls)	+++ (+++ = > 300% of controls)	++ (++ = > 200% of controls)	++++ (++++ = > 400% of controls)	++++ (++++ = > 400% of controls)	< 10
